Data: US6596265B1, “Use of sophorolipids comprising diacetyl lactones as agent for stimulating skin fibroblast metabolism” (Institut Français du Pétrole, priority 1998, dated 2003)
Where “and” joins values, the source holds several entries; their conditions need not be identical. Identical values can stand only once. Marks after values point to notes of the source that are not given here.

Experiments:
Type in all cases: cell-based
Conditions in all cases: 100 μg/ml, 3 days incubation
[1] = system: normal human dermal fibroblast cultures; test: Protein content of fibroblast cell layers (cell division), Coomassie Blue/Bradford
Protocol: The effects of the product on cell division were evaluated by measuring the DNA and proteins in the cell layers after 3 days of incubation. Fibroblasts were isolated from the operative residue of abdominal plastic surgery carried out on a person. The cells were cultivated in fibroblast culture medium (FCM) at 37° C. in a moist atmosphere containing 5% of CO2 until confluence of the monolayers. The culture medium used was fibroblast culture medium (FCM), constituted by MEM/M199 (¾, ¼, v/v) with added penicillin (50 IU/ml), streptomycin (50 μg/ml), sodium bicarbonate (0.2%, wv/v) and SVF (10%, v/v). The fibroblast incubation medium (FIM) with the products was constituted by MEM/M199 (¾, ¼, v/v) with added penicillin (50 IU/ml), streptomycin (50 μg/ml), sodium bicarbonate (0.2%, w/v) and SVF (2%, v/v). It contained 1 μCi/ml of tritiated proline. The purified lactone fraction was diluted in FIM and was tested at 0.02, 0.08 and 0.4 μg/ml (dry matter). The unrefined sophorolipids were tested at 0.08; 0.4 and 2 μg/ml. The ascorbic acid was tested at 100 μg/ml (0.5 mM) in FIM. The fibroblast cultures were incubated for 3 days at 37° C. in a moist atmosphere containing 5% of CO2. Reference cultures, incubated in the absence of the products to be tested, were produced in parallel. The tests were carried out in triplicate. […]

[2] = system: normal human dermal fibroblasts; test: DNA content of fibroblast cell layers (cell division), HOECHST 33258 fluorimetry
Protocol: The effects of the product on cell division were evaluated by measuring the DNA and proteins in the cell layers after 3 days of incubation. Fibroblasts were isolated from the operative residue of abdominal plastic surgery carried out on a person. The cells were cultivated in fibroblast culture medium (FCM) at 37° C. in a moist atmosphere containing 5% of CO2 until confluence of the monolayers. The culture medium used was fibroblast culture medium (FCM), constituted by MEM/M199 (¾, ¼, v/v) with added penicillin (50 IU/ml), streptomycin (50 μg/ml), sodium bicarbonate (0.2%, wv/v) and SVF (10%, v/v). The fibroblast incubation medium (FIM) with the products was constituted by MEM/M199 (¾, ¼, v/v) with added penicillin (50 IU/ml), streptomycin (50 μg/ml), sodium bicarbonate (0.2%, w/v) and SVF (2%, v/v). It contained 1 μCi/ml of tritiated proline. The purified lactone fraction was diluted in FIM and was tested at 0.02, 0.08 and 0.4 μg/ml (dry matter). The ascorbic acid was tested at 100 μg/ml (0.5 mM) in FIM. The fibroblast cultures were incubated for 3 days at 37° C. in a moist atmosphere containing 5% of CO2. Reference cultures, incubated in the absence of the products to be tested, were produced in parallel. The tests were carried out in triplicate. After incubation, the incubation media were removed then the cell layers were rinsed with PBS The cells were then lysed by ultrasound. The DNA was assayed using a fluorimetric method using HOECHST 33258 reactant. The proteins in the cell lysate were assayed using the Coomassie Blue method described by Bradford. These assays ensured a suitable interpretation of the results obtained for collagen neosynthesis. Treatment of data: the groups of data (reference group and treated groups) were processed by a one-way variance analysis (ANOVA 1, p<0.05) followed by a Dunnett test (p<0.05). The effect of the products was thus compared with the control group.

[3] = system: normal human dermal fibroblast cultures; test: Collagen neosynthesis: tritiated proline incorporation into cell layer collagens
Excerpt: The effect of purified lactones on the synthesis of collagens in normal human dermal fibroblast cultures was studied. Collagyens are quantitatively the major dermal proteins. Proline and hydroxyproline constitute 30% of the constituent amino acids of collagens (a high percentage and much higher than that of the majority of other fibroblast proteins). Hydroxyproline is not an amino acid incorporated during the synthesis of collagens, as is the case with proline. Hydroxylation of proline, which leads to the presence of hydroxyproline in collagens, is a collagen maturation process which occurs once synthesis is complete. Measuring the incorporation of tritiated proline into fibroblast proteins thus provides a good index of collagen neosynthesis. […] Collagen neosynthesis was measured by monitoring the incorporation of radiolabelled proline into newly synthesised fibroblast proteins. […] Fractions (1) and (2) were measured together and grouped under the title “cell layer collagens”. […] Measurement of incorporation of tritiated proline into “cell layer collagens” the incorporation of tritiated proline into neosynthesised fibroblast proteins, the proteins present in the cells and deposited in the extracellular matrix, was evaluated after 3 days of incubation. The radioactivity of the cell lysate obtained as described above was measured by liquid scintillation with a β particle counter. […]

[4] = system: normal human dermal fibroblast cultures; test: Collagen neosynthesis: tritiated proline incorporation into secreted collagens (culture medium, >30 kD)
Excerpt: The effect of purified lactones on the synthesis of collagens in normal human dermal fibroblast cultures was studied. Collagyens are quantitatively the major dermal proteins. Proline and hydroxyproline constitute 30% of the constituent amino acids of collagens (a high percentage and much higher than that of the majority of other fibroblast proteins). Hydroxyproline is not an amino acid incorporated during the synthesis of collagens, as is the case with proline. Hydroxylation of proline, which leads to the presence of hydroxyproline in collagens, is a collagen maturation process which occurs once synthesis is complete. […] Collagen neosynthesis was measured by monitoring the incorporation of radiolabelled proline into newly synthesised fibroblast proteins. […] Fractions (1) and (2) were measured together and grouped under the title “cell layer collagens”. […] Measurement of incorporation of tritiated proline into “secreted collagens”: the incorporation of tritiated proline into neosynthesised collagens secreted in the culture medium was evaluated after 3 days of incubation. […] The radioactivity of the high molecular weight protein fraction (retained on the filters) corresponded almost exclusively to the secreted collagens and was measured by liquid scintillation with a β particle counter. […]

O=C1O[C@H]([C@@H](O)CO)C(O)=C1O [Ascorbic acid, ascorbic acid]
Proteins in cell layer [1]: 108 % of reference
DNA content, percentage of control [2]: 90 percentage of control
DNA content, mean ([2]; mean of triplicate): 7.5 μg/cell layer
DNA content, individual culture ([2]; single replicate): 10 μg/cell layer and 6 μg/cell layer (2×)
Cell layer collagens [3]: 168%* % of control
Increase of cell layer collagens, factor ([3]; factor versus control): 0.68
Secreted collagens (culture medium) [4]: 181%* % of control
Increase of secreted collagens, factor ([4]; factor versus control): 1.81
